# Values quoted from earlier work, collected in patent US7803755B2, “Molecules for the treatment and prevention of fungal diseases” (priority 2006, dated 2010).
# Counter-ions that a name gives are not always drawn.
# Key:
# [1] = system: Candida species, including Candida albicans
# [2] = system: Trichophyton rubrum, Trichophyton mentagrophytes, Trichophyton tonsurans, Epidermophyton floccosum, Microsporum canis, Microsporum audouini, and Microsporum …; conditions: wide spectrum of organisms
# onychomycosis = conditions: after using ciclopirox lacquer
SMILES,antifungal activity in vitro [1],antifungal activity in vitro [2],patients rating their onychomycosis as improved (onychomycosis) [%]
"CN(C/C=C/c1ccccc1)Cc1cccc2ccccc12 [Naftifine hydrochloride, naftifine hydrochloride]",fungistatic activity,fungicidal activity,
Cc1cc(C2CCCCC2)n(O)c(=O)c1 [Ciclopirox],,,90
